PMC7957578, “N-(1,3,4-Oxadiazol-2-yl)Benzamides as Antibacterial Agents against Neisseria gonorrhoeae” (International Journal of Molecular Sciences, 2021)
Values after ≈ are worked out from the molar mass of the structure shown. Where two headings read alike, the source gives them in different places.

Tests used:
N. gonorrhoeae 165 = test: MIC/MBC against N. gonorrhoeae clinical isolate 165; format: cell-based; details: Neisseria gonorrhoeae
Experimental: (§1) Briefly, bacteria were grown overnight on chocolate agar II at 37° C in the presence of 5% CO2. Afterwards, a bacterial suspension equivalent to 1.0 McFarland standard was prepared and diluted in brucella broth supplemented with yeast extract, neopeptone, hematin, pyridoxal, and NAD. Test agents were added in the first row of the 96-well plates and serially diluted along the plates. Plates were then incubated at 37° C in the presence of 5% CO2 for 24 h. […] Plates were then incubated at 37 ° C in the presence of 5% CO2 for 24 h. The MBC was categorized as the lowest concentration that reduced bacterial growth by 99.9% [45, 46, 47].

N. gonorrhoeae 166 = test: MIC/MBC against N. gonorrhoeae clinical isolate 166; format: cell-based; details: Neisseria gonorrhoeae
Experimental: as §1

N. gonorrhoeae 200 = test: MIC/MBC against N. gonorrhoeae clinical isolate 200; format: cell-based; details: Neisseria gonorrhoeae
Experimental: as §1

N. gonorrhoeae WHO L = test: MIC/MBC against N. gonorrhoeae WHO L reference strain; format: cell-based; details: Neisseria gonorrhoeae
Experimental: as §1

N. gonorrhoeae 194 = test: MIC/MBC against N. gonorrhoeae clinical isolate 194; format: cell-based; details: Neisseria gonorrhoeae
Experimental: as §1

N. gonorrhoeae 197 = test: MIC/MBC against N. gonorrhoeae clinical isolate 197; format: cell-based; details: Neisseria gonorrhoeae
Experimental: as §1

[1] = system: N. gonorrhoeae strain 181; test: MIC by broth microdilution against N. gonorrhoeae strain 181; format: cell-based, Neisseria gonorrhoeae; details: N. gonorrhoeae strain 181
Experimental: as §1

[2] = system: tested bacterial strains (Table 3); test: MBC versus MIC against the panel of Gram-positive and Gram-negative pathogens; format: cell-based; details: MBCs more than three-fold higher than MICs, strains of Table 3
Experimental: While the focus of these new N-(1,3,4-oxadiazol-2-yl)benzamides is towards N. gonorrhoeae, we proceeded to test their activity against other Gram-positive and Gram-negative pathogens. Intriguingly, HSGN-235, HSGN-237, and HSGN-238 had potent activity against the tested Gram-positive bacterial pathogens. For instance, all three compounds had potent activity against the staphylococcal strains, with MICs ranging from 0.25 to 1 µg/mL (Table 3). Furthermore, HSGN-235, HSGN-237, and HSGN-238 maintained potent activity against clinically relevant Gram-positive bacterial pathogens such as vancomycin-resistant enterococci (VRE) and Listeria monocytogenes (Table 3). Additionally, we moved to test if HSGN-235, HSGN-237, and HSGN-238 were active against other Gram-negative bacterial pathogens. […] This lack of activity against Gram-negative bacteria appears to be due to HSGN-235, HSGN-237, and HSGN-238 being a substrate for efflux.
The minimum inhibitory concentrations (MICs) of the tested compounds and control drugs, linezolid, vancomycin, and gentamicin, were determined using the broth microdilution method according to the guidelines outlined by the Clinical and Laboratory Standards Institute (CLSI) against clinically relevant bacterial (Staphylococcus aureus, MRSA, Escherichia coli, Enterococcus faecalis and Enterococcus faecium strains. S. aureus, MRSA, E. coli, Enterococcus faecalis and Enterococcus faecium were grown aerobically overnight on tryptone soy agar (TSA) plates at 37° C. Afterwards, a bacterial solution equivalent to 0.5 McFarland standard was prepared and diluted in cation-adjusted Mueller–Hinton broth (CAMHB) (for S. aureus, MRSA, and E. coli) to achieve a bacterial concentration of about 5 × 10^5 CFU/mL. Enterococcus faecalis and Enterococcus faecium 0.5 McFarland standard solution was diluted in tryptone soy broth (TSB) to achieve a bacterial concentration of about 5 × 10^5 CFU/mL. Compounds and control drugs were added in the first row of 96-well plates and serially diluted with the corresponding media containing bacteria. […]

VRE. faecium ATCC 700221 = test: MIC/MBC (CLSI broth microdilution) against VRE faecium ATCC 700221; format: cell-based; details: Enterococcus
Experimental: (§2) The minimum inhibitory concentrations (MICs) of the tested compounds and control drugs, linezolid, vancomycin, and gentamicin, were determined using the broth microdilution method according to the guidelines outlined by the Clinical and Laboratory Standards Institute (CLSI) against clinically relevant bacterial (Staphylococcus aureus, MRSA, Escherichia coli, Enterococcus faecalis and Enterococcus faecium strains. S. aureus, MRSA, E. coli, Enterococcus faecalis and Enterococcus faecium were grown aerobically overnight on tryptone soy agar (TSA) plates at 37° C. Afterwards, a bacterial solution equivalent to 0.5 McFarland standard was prepared and diluted in cation-adjusted Mueller–Hinton broth (CAMHB) (for S. aureus, MRSA, and E. coli) to achieve a bacterial concentration of about 5 × 10^5 CFU/mL. Enterococcus faecalis and Enterococcus faecium 0.5 McFarland standard solution was diluted in tryptone soy broth (TSB) to achieve a bacterial concentration of about 5 × 10^5 CFU/mL. Compounds and control drugs were added in the first row of 96-well plates and serially diluted with the corresponding media containing bacteria. Plates were then incubated as previously described. […] The minimum bactericidal concentration (MBC) was tested by spotting 4 µL from wells with no growth onto TSA plates. Plates were incubated at 37 ° C for at least 18 h before recording the MBC. The MBC was categorized as the lowest concentration that reduced bacterial growth by 99.9% [45, 46, 47].

[3] = system: panel drug-resistant pathogenic N. gonorrhoeae strains; test: MIC/MBC against a panel of drug-resistant N. gonorrhoeae strains; format: cell-based, Neisseria gonorrhoeae; details: MBC the same as or one-fold higher than MIC
[4] = system: E. coli JW55031 (TolC Mutant); test: MIC/MBC (CLSI broth microdilution) against E. coli TolC mutant; format: cell-based; details: Escherichia coli
Experimental: as §2

MRSA USA300 = test: MIC/MBC (CLSI broth microdilution) against MRSA USA300; format: cell-based, methicillin-resistant Staphylococcus aureus; details: Staphylococcus aureus
Experimental: as §2

VRE. faecalisATCC 51575 = test: MIC/MBC (CLSI broth microdilution) against VRE faecalis ATCC 51575; format: cell-based; details: Enterococcus
Experimental: as §2

[5] = system: L. monocytogenes ATCC 19115; test: MIC/MBC (CLSI broth microdilution) against L. monocytogenes ATCC 19115; format: cell-based; details: Listeria monocytogenes, ATCC19115
N. gonorrhoeae = test: MIC against N. gonorrhoeae in presence of fetal bovine serum; format: cell-based; details: Neisseria gonorrhoeae, 24 h
VRE. faecalis ATCC 51299 = test: MIC/MBC (CLSI broth microdilution) against VRE faecalis ATCC 51299; format: cell-based; details: Enterococcus
Experimental: as §2

S. aureus ATCC 25923 = test: MIC/MBC (CLSI broth microdilution) against S. aureus ATCC 25923; format: cell-based; details: Staphylococcus aureus, ATCC25923
Experimental: as §2

[6] = system: E. coli BW25113 (wild-type strain); test: MIC/MBC (CLSI broth microdilution) against E. coli BW25113 wild type; format: cell-based, Escherichia coli
Experimental: as §2

E. faecalis ATCC 29212 = test: MIC/MBC (CLSI broth microdilution) against E. faecalis ATCC 29212; format: cell-based; details: Enterococcus faecalis, ATCC29212
Experimental: as §2

[7] = Neisseria gonorrhoeae, read-out: MIC
[8] = Escherichia coli, E. coli BW25113 wild-type strain, read-out: MBC
[9] = Escherichia coli, E. coli BW25113 wild-type strain, read-out: MIC

SMILES	MBC (N. gonorrhoeae 165) [µg/mL]	MIC (N. gonorrhoeae 165) [µg/mL]	MBC (N. gonorrhoeae 166) [µg/mL]	MIC (N. gonorrhoeae 166) [µg/mL]	MBC (N. gonorrhoeae 200) [µg/mL]	MIC (N. gonorrhoeae 200) [µg/mL]	MBC (N. gonorrhoeae WHO L) [µg/mL]	MIC (N. gonorrhoeae WHO L) [µg/mL]	MBC (N. gonorrhoeae 194) [µg/mL]	MIC (N. gonorrhoeae 194) [µg/mL]	MBC (N. gonorrhoeae 197) [µg/mL]	MIC (N. gonorrhoeae 197) [µg/mL]	MIC [1, 7] [µg/mL]	MBC [4] [µg/mL]	MIC [4] [µg/mL]	MBC [6, 8] [µg/mL]	MIC [6, 9] [µg/mL]	other results
CN(C)[C@@H]1C(O)=C(C(N)=O)C(=O)[C@@]2(O)C(O)=C3C(=O)c4c(O)cccc4[C@@](C)(O)[C@H]3C[C@@H]12 [Tetracycline, tetracycline, reference compound]	8 (≈ 18 µM)	4 (≈ 9 µM)	8 (≈ 18 µM)	2 (≈ 4.5 µM)	8 (≈ 18 µM)	2 (≈ 4.5 µM)	2 (≈ 4.5 µM)	0.5 (≈ 1.13 µM)	4 (≈ 9 µM)	1 (≈ 2.25 µM)	4 (≈ 9 µM)	2 (≈ 4.5 µM)	2 (≈ 4.5 µM)	–	–	–	–	–
O=C(Nc1nnc(-c2ccc(C(F)(F)F)cc2)o1)c1ccc(OC(F)(F)F)c(F)c1 [HSGN-235, 3-Fluoro-4-(trifluoromethoxy)-N-(5-(4-(trifluoromethyl)phenyl)-1,3,4-oxadiazol-2-yl)benzamide]	2 (≈ 4.6 µM)	2 (≈ 4.6 µM)	2 (≈ 4.6 µM)	2 (≈ 4.6 µM)	2 (≈ 4.6 µM)	2 (≈ 4.6 µM)	2 (≈ 4.6 µM)	1 (≈ 2.3 µM)	1 (≈ 2.3 µM)	1 (≈ 2.3 µM)	2 (≈ 4.6 µM)	1 (≈ 2.3 µM)	16 (≈ 36.8 µM)	> 64	4 (≈ 9.19 µM)	> 8	> 8	type of activity from MBC versus MIC [2]: bacteriostatic agents; MBC (VRE. faecium ATCC 700221; VRE faecium ATCC 700221, read-out: MBC): 32 µg/mL (≈ 73.5 µM); MIC (VRE. faecium ATCC 700221; VRE faecium ATCC 700221, read-out: MIC): 1 µg/mL (≈ 2.3 µM); type of activity from MBC versus MIC [3]: bactericidal activity; MBC (MRSA USA300; MRSA USA300, read-out: MBC): 64 µg/mL (≈ 147 µM); MIC (MRSA USA300; MRSA USA300, read-out: MIC): 0.5 µg/mL (≈ 1.15 µM); MBC (VRE. faecalisATCC 51575; VRE faecalis ATCC 51575, read-out: MBC): > 64 µg/mL; MIC (VRE. faecalisATCC 51575; VRE faecalis ATCC 51575, read-out: MIC): 2 µg/mL (≈ 4.6 µM); MBC ([5]; L. monocytogenes ATCC 19115, read-out: MBC): 64 µg/mL (≈ 147 µM); MIC ([5]; L. monocytogenes ATCC 19115, read-out: MIC): 1 µg/mL (≈ 2.3 µM); MIC (N. gonorrhoeae; 5% FBS added to the media): 4 µg/mL; MIC (N. gonorrhoeae; 10% FBS added to the media): 8 µg/mL; MBC (VRE. faecalis ATCC 51299; VRE faecalis ATCC 51299, read-out: MBC): 64 µg/mL (≈ 147 µM); MIC (VRE. faecalis ATCC 51299; VRE faecalis ATCC 51299, read-out: MIC): 1 µg/mL (≈ 2.3 µM); MBC (S. aureus ATCC 25923; S. aureus ATCC 25923, read-out: MBC): > 64 µg/mL; MIC (S. aureus ATCC 25923; S. aureus ATCC 25923, read-out: MIC): 1 µg/mL (≈ 2.3 µM); MIC ([6]; E. coli BW25113 wild-type strain): >8 µg/mL; MIC [1]: moderate activity; MBC (E. faecalis ATCC 29212; E. faecalis ATCC 29212, read-out: MBC): 32 µg/mL (≈ 73.5 µM); MIC (E. faecalis ATCC 29212; E. faecalis ATCC 29212, read-out: MIC): 4 µg/mL (≈ 9.19 µM)
CNC(C)C1CCC(N)C(OC2C(N)CC(N)C(OC3OCC(C)(O)C(NC)C3O)C2O)O1 (stereo not drawn) [Gentamicin, gentamicin, reference compound]	–	–	–	–	–	–	–	–	–	–	–	–	–	0.25 (≈ 0.523 µM)	0.25 (≈ 0.523 µM)	0.25 (≈ 0.523 µM)	0.25 (≈ 0.523 µM)	–
CN[C@H](CC(C)C)C(=O)N[C@H]1C(=O)N[C@@H](CC(N)=O)C(=O)N[C@H]2C(=O)N[C@H]3C(=O)N[C@H](C(=O)N[C@H](C(=O)O)c4cc(O)cc(O)c4-c4cc3ccc4O)[C@H](O)c3ccc(c(Cl)c3)Oc3cc2cc(c3O[C@@H]2O[C@H](CO)[C@@H](O)[C@H](O)[C@H]2O[C@H]2C[C@](C)(N)[C@H](O)[C@H](C)O2)Oc2ccc(cc2Cl)[C@H]1O [Vancomycin, vancomycin, reference compound]	–	–	–	–	–	–	–	–	–	–	–	–	–	> 64	> 64	–	–	MBC (VRE. faecium ATCC 700221): 32 µg/mL (≈ 22.1 µM); MIC (VRE. faecium ATCC 700221): 32 µg/mL (≈ 22.1 µM); MBC (MRSA USA300): 2 µg/mL (≈ 1.38 µM); MIC (MRSA USA300): 1 µg/mL (≈ 0.69 µM); MBC (VRE. faecalisATCC 51575): > 64 µg/mL; MIC (VRE. faecalisATCC 51575): > 64 µg/mL; MBC [5]: 1 µg/mL (≈ 0.69 µM); MIC [5]: 1 µg/mL (≈ 0.69 µM); MBC (VRE. faecalis ATCC 51299): > 64 µg/mL; MIC (VRE. faecalis ATCC 51299): > 64 µg/mL; MBC (S. aureus ATCC 25923): 1 µg/mL (≈ 0.69 µM); MIC (S. aureus ATCC 25923): 1 µg/mL (≈ 0.69 µM); MBC ([6]; Escherichia coli, BW25113): > 64 µg/mL; MIC ([6]; Escherichia coli, BW25113): > 64 µg/mL; MBC (E. faecalis ATCC 29212): 1 µg/mL (≈ 0.69 µM); MIC (E. faecalis ATCC 29212): 1 µg/mL (≈ 0.69 µM)
